US9914737B2, “Triazolopyrimidinone or triazolopyridinone derivatives, and use thereof” (ST PHARM CO., LTD., priority 2014, dated 2018)
Counter-ions that a name gives are not always drawn.

target: T1, tankyrase 1 (Homo sapiens, UniProt O95271); assay: Analysis of activity of tankyrase 1 (Trevigen kit, ELISA absorbance at 450 nm); format: biochemical; settings: not given
T1 construct: purchased Trevigen 4700-096-K
T1 sequence (O95271 1-1327): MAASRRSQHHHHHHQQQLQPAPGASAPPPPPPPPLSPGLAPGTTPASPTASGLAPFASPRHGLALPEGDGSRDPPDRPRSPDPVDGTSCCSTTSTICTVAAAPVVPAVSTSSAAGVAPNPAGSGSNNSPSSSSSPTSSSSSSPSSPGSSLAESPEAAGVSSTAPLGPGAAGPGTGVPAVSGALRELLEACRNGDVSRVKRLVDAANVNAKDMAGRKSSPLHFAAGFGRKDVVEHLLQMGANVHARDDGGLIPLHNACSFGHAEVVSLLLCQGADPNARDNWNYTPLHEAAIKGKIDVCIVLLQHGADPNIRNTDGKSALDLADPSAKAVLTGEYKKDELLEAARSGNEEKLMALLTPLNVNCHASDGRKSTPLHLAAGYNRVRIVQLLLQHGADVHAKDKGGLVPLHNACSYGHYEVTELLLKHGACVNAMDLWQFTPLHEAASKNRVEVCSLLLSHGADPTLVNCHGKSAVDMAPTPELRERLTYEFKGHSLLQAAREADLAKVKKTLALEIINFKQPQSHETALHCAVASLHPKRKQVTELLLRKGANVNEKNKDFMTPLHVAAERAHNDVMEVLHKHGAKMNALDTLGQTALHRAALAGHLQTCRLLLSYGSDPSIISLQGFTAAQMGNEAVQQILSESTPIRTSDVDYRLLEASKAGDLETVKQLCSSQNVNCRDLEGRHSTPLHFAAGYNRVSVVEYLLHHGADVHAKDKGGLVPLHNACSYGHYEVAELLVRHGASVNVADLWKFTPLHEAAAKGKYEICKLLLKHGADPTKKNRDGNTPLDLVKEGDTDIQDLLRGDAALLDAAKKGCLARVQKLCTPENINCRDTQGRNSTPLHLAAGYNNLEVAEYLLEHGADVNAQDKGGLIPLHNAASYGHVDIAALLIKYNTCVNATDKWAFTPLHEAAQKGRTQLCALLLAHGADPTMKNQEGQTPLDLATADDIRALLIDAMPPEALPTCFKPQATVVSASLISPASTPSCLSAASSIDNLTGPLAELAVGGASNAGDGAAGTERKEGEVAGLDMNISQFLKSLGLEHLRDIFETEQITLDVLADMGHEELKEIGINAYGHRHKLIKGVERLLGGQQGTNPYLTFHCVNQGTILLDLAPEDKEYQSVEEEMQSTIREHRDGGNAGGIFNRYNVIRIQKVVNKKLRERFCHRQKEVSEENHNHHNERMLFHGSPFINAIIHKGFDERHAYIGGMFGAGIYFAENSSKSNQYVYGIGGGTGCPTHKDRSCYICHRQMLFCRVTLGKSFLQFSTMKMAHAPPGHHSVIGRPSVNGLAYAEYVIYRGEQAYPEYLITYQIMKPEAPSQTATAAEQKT
Description: Activities of novel compounds synthesized according to Examples 1 to 72 against tankyrase 1 were analyzed using a Trevigen kit (Cat. No. 4700-096-K). Poly PAR histone protein-coated 96-well plate, anti-PAR monoclonal antibody and goat anti-mouse IgG-HRP were used for measurement of absorbance by ELISA method. Specifically, 20× I-PAR assay buffer was diluted to 1× by adding water, and 50 μL of the diluted buffer was added to each well of the 96-well plate followed by reacting at rt for 30 min. Then, the supernatant was completely removed from each well and 10 μL of 1× I-PAR assay buffer and 15 μL of assay substrate were added to each well along with 1 μL of a 50× solution of inhibitors to be tested, which were the compounds obtained in the Examples 1 to 72. 10 mUnits/μL of tankyrase 1 enzyme was diluted 50-fold with 1× I-PAR assay buffer and 25 μL of the diluted enzyme was added to each well and reacted while stirring at rt for 30 min. One without any compound of the present invention was used as a positive control and another containing 1× I-PAR assay buffer with the same volume instead of tankyrase 1 enzyme was used as a negative control. Upon completion of the reaction, 200 μL of PBSX, which was prepared by adding 0.1% triton X-100 to PBS, was added and removed and this washing process was repeated twice. Washing was repeated twice more using PBS in the same manner. 5× antibody diluent was diluted with distilled water to 1× concentration, 50 μL of the diluted goat anti-mouse IgG-HRP to 1/2000 was added to each well and reacted while stirring at rt for 30 min. Washes were carried out twice using PBSX and PBS, respectively. After adding 50 μL of TACS-sapphire to each well of the plate, the plate was blocked from light to react for 10 min to 15 min and the color of the reaction solution turned blue. To stop the reaction, 50 μL of 0.2N HCl was added to turn the solution yellow. Finally, the absorbance of the resulting solution was measured at 450 nm.

| SMILES | IC50 [nM] |
| --- | --- |
| Cn1nnc2c(=O)[nH]c(N3CCN(c4c(F)cccc4F)CC3)nc21 [compound 21, 5-(4-(2,6-Difluorophenyl)piperazin-1-yl)-3-methyl-3H-[1,2,3]triazolo[4,5-d]pyrimidin-7(6H)-one] | 8.9 |
| Cn1nnc2c(=O)[nH]c(N3CCN(c4c(F)cc(OC5COC5)cc4F)CC3)nc21 [compound 15, 5-(4-(2,6-Difluoro-4-(oxetan-3-yloxy)phenyl)piperazin-1-yl)-3-methyl-3H-[1,2,3]triazolo[4,5-d]pyrimidin-7(6H)-one] | 24.7 |

Next, values leading:

| IC50 [nM] | SMILES |
| --- | --- |
| 22.1 | Cn1nnc2c(=O)[nH]c(N3CCN(c4c(F)cc(OC5COC5)cc4F)CC3)cc21 [compound 62, 6-(4-(2,6-Difluoro-4-(oxetan-3-yloxy)phenyl)piperazin-1-yl)-1-methyl-1H-[1,2,3]triazolo[4,5-c]pyridin-4(5H)-one] |
| 49.7 | Cn1nnc2c(=O)[nH]c(N3CCN(c4c(F)cc(F)cc4F)CC3)nc21 [compound 22, 3-Methyl-5-(4-(2,4,6-trifluorophenyl)piperazin-1-yl)-3H-[1,2,3]triazolo[4,5-d]pyrimidin-7(6H)-one] |

same assay, conditions: tankyrase 1 enzyme, Trevigen kit Cat. No. 4700-096-K, 30 min at rt; read-out: TNKS1 (IC50)

| SMILES | IC50 [nM] |
| --- | --- |
| Cn1nnc2c(=O)[nH]c(N3CCN(c4c(F)cc(OCc5ccccc5)cc4F)CC3)nc21 [compound 3, 5-(4-(4-(Benzyloxy)-2,6-difluorophenyl)piperazin-1-yl)-3-methyl-3H-[1,2,3]triazolo[4,5-d]pyrimidin-7(6H)-one] | 207 |
| Cn1nnc2c(=O)[nH]c(N3CCN(c4c(F)cc(OCCCCCC(=O)O)cc4F)CC3)nc21 [compound 19, 6-(3,5-Difluoro-4-(4-(3-methyl-7-oxo-6,7-dihydro-3H-[1,2,3]triazolo[4,5-d]pyrimidin-5-yl)piperazin-1-yl)phenoxy)hexanoic acid] | 80 |
| Cn1nnc2c(=O)[nH]c(N3CCN(c4c(F)cc(OCC(O)CO)cc4F)CC3)nc21 (stereo not shown) [compound 12, 5-(4-(4-(2,3-Dihydroxypropoxy)-2,6-difluorophenyl)piperazin-1-yl)-3-methyl-3H-[1,2,3]triazolo[4,5-d]pyrimidin-7(6H)-one] | 12.9 |
| Cn1nnc2c(=O)[nH]c(N3CCN(c4c(F)cc(OCCN5CCOCC5)cc4F)CC3)nc21 [compound 4, 5-(4-(2,6-Difluoro-4-(2-morpholinoethoxy)phenyl)piperazin-1-yl)-3-methyl-3H-[1,2,3]triazolo[4,5-d]pyrimidin-7(6H)-one] | 38.6 |
| C[C@H](N)C(=O)OCCOc1cc(F)c(N2CCN(c3nc4c(nnn4C)c(=O)[nH]3)CC2)c(F)c1 [compound 11, (S)-2-(3,5-difluoro-4-(4-(3-methyl-7-oxo-6,7-dihydro-3H-[1,2,3]triazolo[4,5-d]pyrimidin-5-yl)piperazin-1-yl)phenoxy)ethyl2-aminopropanoate hydrochloride] | 14.5 |
| CN1CCN(Cc2cc(F)c(N3CCN(c4nc5c(nnn5C)c(=O)[nH]4)CC3)c(F)c2)CC1 [compound 14, 5-(4-(2,6-Difluoro-4-((4-methylpiperazin-1-yl)methyl)phenyl)piperazin-1-yl)-3-methyl-3H-[1,2,3]triazolo[4,5-d]pyrimidin-7(6H)-one] | 41.5 |
| Cn1nnc2c(=O)[nH]c(N3CCN(c4c(F)cc(OC(CO)CCl)cc4F)CC3)nc21 (stereo not shown) [compound 16, 5-(4-(4-(1-Chloro-3-hydroxypropan-2-yloxy)-2,6-difluorophenyl)piperazin-1-yl)-3-methyl-3H-[1,2,3]triazolo[4,5-d]pyrimidin-7(6H)-one] | 28.6 |
| Cn1nnc2c(=O)[nH]c(N3CCN(c4c(F)cc(OCCN5CCCCC5)cc4F)CC3)nc21 [compound 5, 5-(4-(2,6-Difluoro-4-(2-(piperidin-1-yl)ethoxy)phenyl)piperazin-1-yl)-3-methyl-3H-[1,2,3]triazolo[4,5-d]pyrimidin-7(6H)-one] | 14.2 |

Next, values leading:

| IC50 [nM] | SMILES |
| --- | --- |
| 22.7 | Cn1nnc2c(=O)[nH]c(N3CCN(c4c(F)cc(OCCN5CCC(N)CC5)cc4F)CC3)nc21 [compound 39, 5-(4-(4-(2-(4-Aminopiperidin-1-yl)ethoxy)-2,6-difluorophenyl)piperazin-1-yl)-3-methyl-3H-[1,2,3]triazolo[4,5-d]pyrimidin-7(6H)-one] |
| 7.31 | Cn1nnc2c(=O)[nH]c(N3CCN(c4c(F)cc(OCCN5CCC(N)CC5)cc4F)CC3)cc21 [compound 72, 6-(4-(4-(2-(4-Aminopiperidin-1-yl)ethoxy)-2,6-difluorophenyl)piperazin-1-yl)-1-methyl-1H-[1,2,3]triazolo[4,5-c]pyridin-4(5H)-one] |
| 29.3 | Cn1nnc2c(=O)[nH]c(N3CCN(c4c(F)cc(OCCN5CCCCC5)cc4F)CC3)cc21 [compound 55, 6-(4-(2,6-Difluoro-4-(2-(piperidin-1-yl)ethoxy)phenyl)piperazin-1-yl)-1-methyl-1H-[1,2,3]triazolo[4,5-c]pyridin-4(5H)-one] |
| 16 | Cn1nnc2c(=O)[nH]c(N3CCN(c4c(F)cc(OCC(O)CO)cc4F)CC3)cc21 (stereo not shown) [compound 59, 6-(4-(4-(2,3-Dihydroxypropoxy)-2,6-difluorophenyl)piperazin-1-yl)-1-methyl-1H-[1,2,3]triazolo[4,5-c]pyridin-4(5H)-one] |
| 28.1 | Cn1nnc2c(=O)[nH]c(N3CCN(c4c(F)cc(OCCN)cc4F)CC3)nc21 [compound 37, 5-(4-(4-(2-Aminoethoxy)-2,6-difluorophenyl)piperazin-1-yl)-3-methyl-3H-[1,2,3]triazolo[4,5-d]pyrimidin-7(6H)-one] |
| 93.1 | COCCCc1cc(F)c(N2CCN(c3nc4c(nnn4C)c(=O)[nH]3)CC2)c(F)c1 [compound 40, 5-(4-(2,6-Difluoro-4-(3-methoxypropyl)phenyl)piperazin-1-yl)-3-methyl-3H-[1,2,3]triazolo[4,5-d]pyrimidin-7(6H)-one] |
| 51.3 | Cn1nnc2c(=O)[nH]c(N3CCN(c4c(F)cc(OCCCN5CCCCC5)cc4F)CC3)nc21 [compound 33, 5-(4-(2,6-Difluoro-4-(3-(piperidin-1-yl)propoxy)phenyl)piperazin-1-yl)-3-methyl-3H-[1,2,3]triazolo[4,5-d]pyrimidin-7(6H)-one] |
| 39.6 | Cn1nnc2c(=O)[nH]c(N3CCN(c4c(F)cc(OCC(=O)N5CCCC5)cc4F)CC3)nc21 [compound 36, 5-(4-(2,6-Difluoro-4-(2-oxo-2-(pyrrolidin-1-yl)ethoxy)phenyl)piperazin-1-yl)-3-methyl-3H-[1,2,3]triazolo[4,5-d]pyrimidin-7(6H)-one] |
| 7.98 | Cn1nnc2c(=O)[nH]c(N3CCN(c4c(F)cc(OCCO)cc4F)CC3)cc21 [compound 57, 6-(4-(2,6-Difluoro-4-(2-hydroxyethoxy)phenyl)piperazin-1-yl)-1-methyl-1H[1,2,3]triazolo[4,5-c]pyridin-4(5H)-one] |
| 40.2 | COCCN(C)Cc1cc(F)c(N2CCN(c3cc4c(nnn4C)c(=O)[nH]3)CC2)c(F)c1 [compound 65, 6-(4-(2,6-Difluoro-4-(((2-methoxyethyl)(methyl)amino)methyl)phenyl)piperazin-1-yl)-1-methyl-1H-[1,2,3]triazolo[4,5-c]pyridin-4(5H)-one] |
